The values that follow come from patent US20200239530A1, “COMPOUNDS AND METHODS OF MODULATING PROTEIN DEGRADATION” (Vividion Therapeutics, Inc., priority 2017, published 2020).

For assay [1], the target named is T1, KBTBD8 Kelch repeat and BTB domain-containing protein 8 (Homo sapiens, UniProt Q8NFY9).
T1 construct: Cells were resuspended in cold PBS on ice and sonicated with a probe sonicator to achieve lysis; endogenous in cells
T1 sequence (Q8NFY9 1-601): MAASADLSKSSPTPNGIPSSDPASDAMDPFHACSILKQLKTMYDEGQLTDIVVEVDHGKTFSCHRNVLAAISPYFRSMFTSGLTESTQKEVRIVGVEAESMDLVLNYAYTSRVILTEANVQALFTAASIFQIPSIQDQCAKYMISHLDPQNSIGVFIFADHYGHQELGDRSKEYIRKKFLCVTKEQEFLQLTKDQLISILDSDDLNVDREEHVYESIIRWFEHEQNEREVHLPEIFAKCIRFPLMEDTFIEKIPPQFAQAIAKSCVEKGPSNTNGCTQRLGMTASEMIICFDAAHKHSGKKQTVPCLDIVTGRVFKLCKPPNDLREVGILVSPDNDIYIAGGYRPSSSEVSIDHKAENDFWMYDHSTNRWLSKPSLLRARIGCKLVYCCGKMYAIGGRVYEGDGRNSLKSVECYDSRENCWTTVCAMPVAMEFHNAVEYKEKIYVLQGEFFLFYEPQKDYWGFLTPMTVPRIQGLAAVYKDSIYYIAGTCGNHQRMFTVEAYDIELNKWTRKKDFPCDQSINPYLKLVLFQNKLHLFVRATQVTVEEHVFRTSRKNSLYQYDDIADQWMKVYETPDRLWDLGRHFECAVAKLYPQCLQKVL
In words: Cysteine liganding, probe competition. In kind it is binding. To be noted: for 100 Max / 100 ave / 500 Max / 500 ave: uniprot Q8NFY9. An outline of the steps: (§1)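 Probe competition in native proteome: 5 mg/ml lysate, compound 1 hr 25° C, then desthiobiotin iodoacetamide (10 mM stock) 1 hr 25° C; acetone ppt, urea/DTT reduction, iodoacetamide alkylation, trypsin, streptavidin pull-down.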

For assay [2], the target named is T2, RRP1B Ribosomal RNA processing protein 1 homolog B (Homo sapiens, UniProt Q14684).
T2 construct: Cells were resuspended in cold PBS on ice and sonicated with a probe sonicator to achieve lysis; endogenous in cells
T2 sequence (Q14684 1-758): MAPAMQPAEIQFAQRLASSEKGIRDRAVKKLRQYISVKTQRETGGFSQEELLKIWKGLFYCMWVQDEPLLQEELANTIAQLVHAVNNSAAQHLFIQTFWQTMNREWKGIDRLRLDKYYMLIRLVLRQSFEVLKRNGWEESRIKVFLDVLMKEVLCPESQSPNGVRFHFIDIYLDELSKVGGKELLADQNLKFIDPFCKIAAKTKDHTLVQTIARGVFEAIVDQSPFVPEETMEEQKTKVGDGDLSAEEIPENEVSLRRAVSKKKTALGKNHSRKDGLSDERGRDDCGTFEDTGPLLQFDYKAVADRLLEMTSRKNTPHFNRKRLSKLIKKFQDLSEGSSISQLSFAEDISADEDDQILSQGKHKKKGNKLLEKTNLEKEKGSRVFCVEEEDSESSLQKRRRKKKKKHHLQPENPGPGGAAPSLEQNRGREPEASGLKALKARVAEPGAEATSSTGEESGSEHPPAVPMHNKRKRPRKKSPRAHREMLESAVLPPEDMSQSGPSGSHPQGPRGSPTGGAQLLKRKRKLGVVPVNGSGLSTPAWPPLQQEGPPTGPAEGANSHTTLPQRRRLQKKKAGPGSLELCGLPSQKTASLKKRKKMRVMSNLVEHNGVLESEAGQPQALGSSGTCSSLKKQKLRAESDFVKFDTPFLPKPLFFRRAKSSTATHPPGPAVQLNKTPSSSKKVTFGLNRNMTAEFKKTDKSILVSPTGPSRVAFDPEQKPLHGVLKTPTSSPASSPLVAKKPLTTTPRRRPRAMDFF
Description: Cysteine liganding, probe competition. In kind it is binding. The method in brief:
as §1

Regarding `COc1ccc2c(c1)CCCN2C(=O)CCl` [KB02], in assay [1] (KBTBD8 Res# 181, uniprot Q8NFY9), the Liganded result is “YES”. Further, in assay [1], the “100 Max” value is 38.4, the 100 ave is 36.7, the “500 Max” value is recorded as 79.2 and the 500 ave stood at 79.2. For the same compound, the Liganded entry in assay [2] (RRP1B Res# 155, uniprot Q14684) is “YES”.
In the case of `O=C(CCl)Nc1cc(C(F)(F)F)cc(C(F)(F)F)c1` [KBO3], in assay [1], the “100 Max” value was determined as 5.3, the 100 ave is recorded as −7.4, the “500 Max” value is recorded as 21.5 and the 500 ave came to 21.5. Further, in assay [2] (uniprot Q14684), the “100 Max” value is 27.08, the 100 ave is reported as 18.31, the “500 Max” value amounted to 70.79 and the 500 ave was 66.05.
